In patent publication US20240293289A1, “Multifunctional Dental Adhesives and Uses Thereof” (University of Maryland, Baltimore, priority 2023, published 2024):

Biological target: MMP-9 (Homo sapiens, UniProt P14780)
Assay: SENSOLYTE Generic MMP Assay Kit, MMP inhibition
Type: biochemical
Protocol: For the MMPs inhibition assay, SENSOLYTE Generic MMP Assay Kit Colorimetric was used. The MMP thiopeptide substrate solution was diluted to 0.2 mM with the supplied assay buffer in a 1:50 volume ratio. A 96-well plate was used for the assay using four replicates per group. In each well, 40 μL of MMP-9 (20 ng/well), 10 μL of CHX (1 mg/mL) at serial dilutions, and 50 μL of thiopeptide substrate solution were mixed. […] was measured using a plate reader (SpectraMax M5, Molecular Devices, Sunnyvale, CA, USA) at Ex/Em-490 nm/540 nm with a kinetic mode every 5 min for 60 min (20). The substrate control group was set as a background, where its absorbance was subtracted from other wells. The percentage of MMP inhibition was calculated according to equation 5: […]

Chain of MMP-9 (P14780 94-707): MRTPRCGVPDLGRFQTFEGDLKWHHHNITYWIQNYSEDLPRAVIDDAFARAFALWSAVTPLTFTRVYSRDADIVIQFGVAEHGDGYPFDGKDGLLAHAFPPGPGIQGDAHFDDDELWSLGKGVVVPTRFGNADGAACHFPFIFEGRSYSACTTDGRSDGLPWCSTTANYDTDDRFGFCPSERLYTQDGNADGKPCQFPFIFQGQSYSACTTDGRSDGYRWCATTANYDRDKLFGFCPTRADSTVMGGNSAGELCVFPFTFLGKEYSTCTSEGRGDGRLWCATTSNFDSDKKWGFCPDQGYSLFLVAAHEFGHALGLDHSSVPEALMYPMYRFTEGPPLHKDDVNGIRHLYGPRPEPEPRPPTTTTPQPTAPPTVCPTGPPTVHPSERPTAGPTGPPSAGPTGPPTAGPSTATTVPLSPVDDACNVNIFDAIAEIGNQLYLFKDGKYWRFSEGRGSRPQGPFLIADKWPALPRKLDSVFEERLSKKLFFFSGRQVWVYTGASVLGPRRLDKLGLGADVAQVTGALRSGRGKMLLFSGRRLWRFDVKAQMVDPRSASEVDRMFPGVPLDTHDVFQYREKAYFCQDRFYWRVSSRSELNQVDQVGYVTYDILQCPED

inhibition at 1000 µg/mL (1 mg/mL CHX): 99.8% | inhibition of MMP-9 (less than 1 mg/mL of CHX): substantial inhibition
Compound: [H]/N=C(\N/C(=N/[H])NCCCCCCNC(=N)NC(=N)Nc1ccc(Cl)cc1)Nc1ccc(Cl)cc1 [CHX, Chlorhexidine]
